From ChEMBL document CHEMBL4393728, “1-Phenyl-dihydrobenzoindazoles as novel colchicine site inhibitors: Structural basis and antitumor efficacy” (Eur J Med Chem, 2019)
Values after ≈ are worked out from the molar mass of the structure shown. Active and inactive are the calls of the source. The calls are words filed in the database; no cut-off is given here.

What was measured:
COLO 205 [1] = assay: Antiproliferative activity against human COLO205 cells assessed as reduction in cell viability incubated for 72 hrs by MTT assay; assay type: functional, cell-based; conditions: COLO 205, 72 h
Tubulin = Tubulin (Bos taurus, UniProt Q6B856+Q862L2+Q862F3); assay: Inhibition of bovine brain tubulin polymerization measured every 1 min for 60 mins by turbidimetric assay
HCT-116 [2] = assay: Antiproliferative activity against human HCT116 cells assessed as reduction in cell viability incubated for 72 hrs by MTT assay; assay type: functional, cell-based; conditions: HCT-116, 72 h
COLO 205 [3] = assay: Antitumor activity against human COLO205 cells xenografted in BALB/c mouse assessed as reduction in tumor growth at 20 mg/kg, iv via tail once every 4 days for 16 days; assay type: functional, organism-based
HCT-116 [4] = assay: Antitumor activity against human HCT116 cells xenografted in BALB/c mouse assessed as reduction in tumor growth at 20 mg/kg, iv via tail once every 4 days for 16 days; assay type: functional, organism-based
[5] = Toxicity in BALB/c mouse xenografted with COLO205 cells assessed as reduction in body weight at 20 mg/kg, iv via tail once every 4 days for 16 days; assay type: organism-based; conditions: in vivo
[6] = Toxicity in BALB/c mouse xenografted with HCT116 cells assessed as reduction in body weight at 20 mg/kg, iv via tail once every 4 days for 16 days; assay type: organism-based; conditions: in vivo
[7] = Solubility of compound in normal saline; assay type: physicochemical

IC50 (COLO 205 [1]) | IC50 (Tubulin) | Structure (SMILES) | other results
> 10 µM | > 10 µM | COc1ccc(-c2c3c(nn2-c2ccccc2)CCc2c-3cc(OC)c(OC)c2OC)cc1F | 
1.23 µM | > 10 µM | COc1ccc(-c2c3c(nn2C)CCc2c-3cc(OC)c(OC)c2OC)cc1F | 
0.002 µM | 9.2 µM | COc1ccc(-c2[nH]nc3c2-c2cc(OC)c(OC)c(OC)c2CC3)cc1F | 
3.35 µM | > 10 µM | COc1ccc(-c2c3c(nn2C)CCc2c-3cc(OC)c(OC)c2OC)cc1 | 
0.001 µM | 1.6 µM | COc1ccc(-c2[nH]nc3c2-c2cc(OC)c(OC)c(OC)c2CC3)cc1N | IC50 (HCT-116 [2]): 0.001 µM; solubility [7]: 1000 µg/mL (≈ 2620 µM)
2.91 µM | > 10 µM | COc1ccc(-c2c3c(nn2CCO)CCc2c-3cc(OC)c(OC)c2OC)cc1F | 

Further lines, the molecule ahead of its results:

Structure (SMILES) | IC50 (COLO 205 [1]) | IC50 (Tubulin) | other results
COc1ccc(/C=C2\c3cc(OC)c(OC)c(OC)c3CC[C@@H]2O)cc1 | 8.15 µM | > 10 µM | 
COc1ccc(/C=C\c2cc(OC)c(OC)c(OC)c2)cc1O [COMBRETASTATIN A4] |  |  | IC50 (HCT-116 [2]): 0.001 µM
COc1ccc(-c2[nH]nc3c2-c2cc(OC)c(OC)c(OC)c2CC3)cc1[N+](=O)[O-] | 0.3 µM | > 10 µM | 
COc1ccc(-c2[nH]nc3c2-c2cc(OC)c(OC)c(OC)c2CC3)cc1NC(=O)[C@@H](N)CO.Cl | 2.11 µM | > 10 µM | IC50 (HCT-116 [2]): 1.94 µM; Activity (COLO 205 [3]): Active; Activity (HCT-116 [4]): Active; Activity [5]: Non-Toxic; Activity [6]: Non-Toxic
COc1ccc(/C=C2\c3cc(OC)c(OC)c(OC)c3CC[C@H]2O)cc1 | 2.97 µM | > 10 µM | 
